Results on 35 molecules are retold here after ChEMBL document CHEMBL1201862, “PubChem BioAssay data set” (2004).

Calls of active or inactive are those of the source.

The target of assay [1] is Luciferin 4-monooxygenase (Photinus pyralis, UniProt P08659). As to the kind of experiment: firefly luciferase enzyme inhibitors, dose response, biochemical, luminescence (AID 1891).
Assay [2] can be described thus: Luminescence Cell-Based Dose Confirmation HTS to Identify Inhibitors of Platelet Dense Granule Release. [Related pubchem assays: 1663 (Primary HTS), 1678 (Summary of Project)]. Format: functional.
Assay [3] has as its system H9c2. In words: cells. Format: functional, cell-based. To be noted: Rattus norvegicus, H9c2, Myocardium.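 Also: confirmatory concentration-response retest of ultra-high-throughput screening hits for modulation of myocardial damage; cell death induced by hydrogen peroxide oxidative stress; compound pretreatment for 60 min then peroxide exposure for 2 h; potency is for protecting the cells against peroxide damage rather than for killing them.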
The target of assay [4] is T1, Protein skinhead-1 (Caenorhabditis elegans, UniProt P34707).
T1 sequence (P34707 whole entry): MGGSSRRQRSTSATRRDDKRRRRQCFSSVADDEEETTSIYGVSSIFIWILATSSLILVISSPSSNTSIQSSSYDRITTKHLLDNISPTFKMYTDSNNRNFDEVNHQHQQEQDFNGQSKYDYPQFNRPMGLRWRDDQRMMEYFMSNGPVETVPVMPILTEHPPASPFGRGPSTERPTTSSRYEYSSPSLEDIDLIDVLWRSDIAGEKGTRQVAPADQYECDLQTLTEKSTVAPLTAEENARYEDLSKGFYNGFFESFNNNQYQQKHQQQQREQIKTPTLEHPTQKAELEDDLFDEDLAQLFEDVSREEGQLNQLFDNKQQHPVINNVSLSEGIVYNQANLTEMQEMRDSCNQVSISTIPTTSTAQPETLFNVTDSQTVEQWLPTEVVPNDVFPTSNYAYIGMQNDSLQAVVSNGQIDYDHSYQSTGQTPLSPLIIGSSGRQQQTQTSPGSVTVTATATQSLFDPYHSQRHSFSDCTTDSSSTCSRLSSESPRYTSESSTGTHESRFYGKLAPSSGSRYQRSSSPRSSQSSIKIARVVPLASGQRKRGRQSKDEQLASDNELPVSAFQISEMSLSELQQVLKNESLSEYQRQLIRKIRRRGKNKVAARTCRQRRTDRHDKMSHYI
The format is functional.

In assay [5] the target is T2, Heat shock factor protein 1 (Mus musculus, UniProt P38532).
T2 sequence (P38532 whole entry): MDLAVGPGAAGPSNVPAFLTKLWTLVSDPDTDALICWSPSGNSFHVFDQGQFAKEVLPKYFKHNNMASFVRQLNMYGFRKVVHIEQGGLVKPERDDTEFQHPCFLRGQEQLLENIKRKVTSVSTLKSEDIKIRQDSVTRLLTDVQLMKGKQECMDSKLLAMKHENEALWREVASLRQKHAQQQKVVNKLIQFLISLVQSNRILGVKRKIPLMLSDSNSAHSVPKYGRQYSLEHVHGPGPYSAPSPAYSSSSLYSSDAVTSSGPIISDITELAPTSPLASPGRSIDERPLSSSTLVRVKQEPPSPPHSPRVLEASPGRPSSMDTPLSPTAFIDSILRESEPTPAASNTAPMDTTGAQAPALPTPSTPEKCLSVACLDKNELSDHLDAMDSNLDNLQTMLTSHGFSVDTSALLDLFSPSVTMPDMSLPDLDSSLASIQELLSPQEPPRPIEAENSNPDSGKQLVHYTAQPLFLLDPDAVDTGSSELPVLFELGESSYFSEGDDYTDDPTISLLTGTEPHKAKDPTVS
In words: HSF1 potentiators in luciferase reporter cells, confirmation, cell-based, NIH3T3, luminescence, dose retest (AID 435004).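 Also: stress induced by proteasome inhibitor MG132 added 30 min after compound; luciferase reporter driven by HSF1 response element in NIH3T3 cells; actives raise luminescence as potentiators of the MG132 stress response.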 Format: functional.

A short description of assay [6]: Luminescence Cell-Based Dose Retest to Confirm Inhibitors of Cancer Stem Cells. [Related pubchem assays (depositor defined):AID2717, AID2721]. The format is functional. Conditions: Homo sapiens.
Assay [7] can be described thus: cells. Format: functional.
The target in assay [8] is Cytochrome P450 2D6 (Homo sapiens, UniProt P10635).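 Also: CYP2D6 member of a cytochrome P450 panel assay.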
Assay [9] addresses T3, RNA-binding protein pos-1 (Caenorhabditis elegans, UniProt G5EF15).
T3 sequence (G5EF15 whole entry): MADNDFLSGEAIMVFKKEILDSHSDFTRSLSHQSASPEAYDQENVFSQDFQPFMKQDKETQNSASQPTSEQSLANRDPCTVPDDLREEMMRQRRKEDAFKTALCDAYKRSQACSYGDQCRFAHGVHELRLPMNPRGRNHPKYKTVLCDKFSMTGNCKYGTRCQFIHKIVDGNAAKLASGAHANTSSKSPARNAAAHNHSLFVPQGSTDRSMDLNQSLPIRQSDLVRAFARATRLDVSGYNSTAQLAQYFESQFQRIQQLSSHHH
In words: inhibitors of POS-1/mex-3 RNA binding, dose response, biochemical, fluorescence polarization (AID 1964). (In fluorescence polarisation assays a small probe gives low polarisation when free and higher when bound to something large.)

Assay [10] in a line: inhibitors of firefly luciferase expression or activity, dose response, H4 neuroglioma cells, luminescence (AID 1990). Format: functional, cell-based.
A short description of assay [11]: Luminescence Cell-Based Dose Response HTS to Identify Inhibitors of 5'UTR Stem-Loop Driven Prion Protein mRNA Translation in H4 Neuroglioblastoma Cells. [Related pubchem assays: 1827 (Project Summary), 1813 (Primary HTS)]. Format: functional.
Assay [12] in a line: inhibitors of SNCA 5'UTR-driven reporter translation, confirmation, H4 neuroglioma cells, luminescence (AID 1988). The format is functional, cell-based.
Assay [13] has as its target Cytochrome P450 3A4 (Homo sapiens, UniProt P08684).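 Also: CYP3A4 tested as one member of a cytochrome P450 panel screen.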
In assay [14] the target is Cytochrome P450 2C9 (Homo sapiens, UniProt P11712).
A short description of assay [15]: HEp-2 cell cytotoxicity, dose response, cytotoxicity control for RSV inhibitor project, HTS (AID 2410). To be noted: human respiratory syncytial virus. The format is functional.
For assay [16], the target named is T4, Corticotropin-releasing factor receptor 2/Corticotropin-releasing factor-binding protein (Homo sapiens, UniProt P24387+Q13324).
T4 sequence (Q13324 whole entry): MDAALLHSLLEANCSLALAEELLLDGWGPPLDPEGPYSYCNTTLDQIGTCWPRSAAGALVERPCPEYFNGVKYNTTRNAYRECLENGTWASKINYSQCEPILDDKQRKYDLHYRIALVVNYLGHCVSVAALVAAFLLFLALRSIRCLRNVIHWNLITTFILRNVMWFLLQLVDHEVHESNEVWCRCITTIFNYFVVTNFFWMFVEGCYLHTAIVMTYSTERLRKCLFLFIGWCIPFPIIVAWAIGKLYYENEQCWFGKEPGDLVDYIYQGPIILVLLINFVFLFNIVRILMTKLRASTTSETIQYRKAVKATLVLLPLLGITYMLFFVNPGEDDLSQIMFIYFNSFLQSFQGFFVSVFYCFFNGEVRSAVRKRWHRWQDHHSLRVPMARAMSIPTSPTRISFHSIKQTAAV
T4 sequence (P24387 whole entry): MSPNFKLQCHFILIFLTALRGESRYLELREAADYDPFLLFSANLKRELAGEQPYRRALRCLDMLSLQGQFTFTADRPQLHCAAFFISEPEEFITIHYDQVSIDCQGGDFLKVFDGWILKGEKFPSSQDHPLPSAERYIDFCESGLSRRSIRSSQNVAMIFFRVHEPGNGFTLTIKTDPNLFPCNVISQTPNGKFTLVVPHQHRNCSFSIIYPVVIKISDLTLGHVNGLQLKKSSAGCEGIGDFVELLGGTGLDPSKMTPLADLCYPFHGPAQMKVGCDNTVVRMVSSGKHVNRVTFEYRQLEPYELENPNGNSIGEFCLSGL
In words: Dose Response confirmation of uHTS hits for small molecule antagonists of the CRF-binding protein and CRF-R2 receptor complex. Format: functional. To be noted: read-out: IC50_Mean.

The target in assay [17] is T4, Corticotropin-releasing factor receptor 2/Corticotropin-releasing factor-binding protein. In words: activators of CRF receptor 2 with binding protein – uHTS hits, confirmation (AID 602473). The format is functional. To be noted: read-out: EC50_Mean.

Luciferin 4-monooxygenase, sequence (P08659 whole entry): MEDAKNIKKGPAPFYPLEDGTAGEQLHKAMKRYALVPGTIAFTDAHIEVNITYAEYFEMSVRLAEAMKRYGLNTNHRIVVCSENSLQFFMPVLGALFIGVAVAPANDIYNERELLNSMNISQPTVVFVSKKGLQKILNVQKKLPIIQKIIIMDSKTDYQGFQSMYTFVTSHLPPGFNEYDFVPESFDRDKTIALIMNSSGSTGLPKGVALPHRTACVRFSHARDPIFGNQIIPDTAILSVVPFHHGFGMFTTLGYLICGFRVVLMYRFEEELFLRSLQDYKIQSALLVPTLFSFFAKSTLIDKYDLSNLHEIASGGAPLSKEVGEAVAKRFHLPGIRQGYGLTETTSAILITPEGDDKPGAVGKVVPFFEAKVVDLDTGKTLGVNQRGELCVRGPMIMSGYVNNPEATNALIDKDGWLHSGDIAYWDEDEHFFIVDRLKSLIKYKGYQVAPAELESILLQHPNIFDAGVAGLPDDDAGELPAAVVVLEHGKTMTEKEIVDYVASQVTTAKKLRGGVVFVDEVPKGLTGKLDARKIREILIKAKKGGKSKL
Cytochrome P450 2D6, sequence (P10635 whole entry): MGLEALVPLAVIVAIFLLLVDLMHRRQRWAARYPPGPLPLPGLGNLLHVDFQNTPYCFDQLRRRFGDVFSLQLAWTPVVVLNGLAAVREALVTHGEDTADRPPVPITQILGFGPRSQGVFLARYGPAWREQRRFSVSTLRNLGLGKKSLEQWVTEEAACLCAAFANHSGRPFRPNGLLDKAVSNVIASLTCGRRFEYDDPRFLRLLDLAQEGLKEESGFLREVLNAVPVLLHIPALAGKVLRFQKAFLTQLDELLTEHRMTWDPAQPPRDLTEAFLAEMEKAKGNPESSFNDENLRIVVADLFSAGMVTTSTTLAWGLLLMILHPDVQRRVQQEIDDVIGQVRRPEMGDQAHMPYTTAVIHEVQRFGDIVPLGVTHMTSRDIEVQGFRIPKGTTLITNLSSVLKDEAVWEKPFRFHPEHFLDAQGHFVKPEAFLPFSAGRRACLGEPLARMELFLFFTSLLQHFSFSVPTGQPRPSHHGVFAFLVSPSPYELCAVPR
Cytochrome P450 2C9, sequence (P11712 whole entry): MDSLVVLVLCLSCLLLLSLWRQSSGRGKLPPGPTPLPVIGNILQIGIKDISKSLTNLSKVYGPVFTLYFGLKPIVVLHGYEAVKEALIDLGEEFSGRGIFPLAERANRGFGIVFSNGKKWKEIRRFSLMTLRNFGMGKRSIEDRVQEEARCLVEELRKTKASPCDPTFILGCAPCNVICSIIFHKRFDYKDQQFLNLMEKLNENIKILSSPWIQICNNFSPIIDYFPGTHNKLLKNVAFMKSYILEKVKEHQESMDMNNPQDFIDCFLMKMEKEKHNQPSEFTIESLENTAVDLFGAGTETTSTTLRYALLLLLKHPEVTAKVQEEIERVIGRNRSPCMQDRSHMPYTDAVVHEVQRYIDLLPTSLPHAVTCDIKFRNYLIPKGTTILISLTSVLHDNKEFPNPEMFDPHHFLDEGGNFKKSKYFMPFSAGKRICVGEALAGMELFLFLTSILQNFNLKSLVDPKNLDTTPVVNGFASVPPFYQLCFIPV
Cytochrome P450 3A4, sequence (P08684 whole entry): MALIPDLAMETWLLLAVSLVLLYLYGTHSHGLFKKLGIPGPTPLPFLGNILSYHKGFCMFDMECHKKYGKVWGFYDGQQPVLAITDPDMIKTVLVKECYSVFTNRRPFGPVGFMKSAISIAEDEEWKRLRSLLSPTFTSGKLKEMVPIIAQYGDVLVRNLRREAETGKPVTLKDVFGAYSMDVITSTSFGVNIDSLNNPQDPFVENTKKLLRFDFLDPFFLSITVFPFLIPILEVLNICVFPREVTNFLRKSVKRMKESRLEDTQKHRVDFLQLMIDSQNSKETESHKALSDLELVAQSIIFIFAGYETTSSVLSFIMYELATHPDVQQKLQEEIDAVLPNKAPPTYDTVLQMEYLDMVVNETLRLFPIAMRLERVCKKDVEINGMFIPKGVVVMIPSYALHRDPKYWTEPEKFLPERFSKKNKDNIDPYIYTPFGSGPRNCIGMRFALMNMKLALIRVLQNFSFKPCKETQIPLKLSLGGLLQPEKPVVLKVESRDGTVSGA

In the case of `CCCc1nc2sc3c(O)ncnc3c2c2c1CCCC2`, the EC50 in [1] and in [2] was > 112 µM (not active) in each case.

Turning to `CC(C)(C)OC(=O)N1CCC(NC(=O)c2[nH]cnc2C(=O)NCC(=O)OCc2ccccc2)CC1`, the IC50 in assay [3] was 47 µM (inactive).

Take `CC(C)(C)C(=O)Nc1ccc(C(=O)N/N=C/c2ccccc2OC(=O)c2ccccc2)cc1`: the IC50 in assay [3] is 31.5 µM (inactive).

As to `Cc1ccccc1[S+]([O-])Cc1ccc(C(=O)N2CCN(C(=O)c3ccco3)CC2)o1` (configuration not stated), the IC50 in assay [4] was > 100 µM (inactive).

Turning to `CSc1cc(-c2ccco2)oc1C(=O)c1ccco1`, the EC50 in assay [5] is > 260 µM (inactive). In addition, the IC50 in [4] was > 100 µM (inactive).

As for `COc1cc(C(=O)N/N=C/c2ccc(OC(=O)c3ccccc3)c(OC)c2)ccc1O`, in [3], the IC50 is > 79 µM (inactive).

Turning to `CCSc1ncc(/C=N/Nc2ccc(Cl)cc2)n1C`, the AC50 (commonly the midpoint of the concentration-response curve, whichever way the signal moves) in assay [6] is 3.3 µM (active). Also, the IC50 in assay [7] is > 50 µM (active).

`Cc1onc(-c2c(Cl)cccc2Cl)c1C(=O)N1CCc2ccccc2C1`: the EC50 in assay [1] and in assay [2] was > 112 µM (not active) throughout. For the same molecule, the AC50 in assay [8] was 22.4 µM (inconclusive).

Consider `O=C1c2ccccc2C(=O)c2c1ccc(C(=O)N1CCCCC1)c2NCCO`, for which, in [4], the IC50 is > 100 µM (inactive).

As for `O=c1c2ccccc2nc(/C=C/c2ccc(F)cc2)n1-c1ccccn1`, the EC50 in assay [1] and in [2] was > 112 µM (not active) throughout.

As to `O=C(COC(=O)c1ccc(Cl)nc1)Nc1ccc2ccccc2c1`, the IC50 in assay [4] was > 100 µM (inactive).

Regarding `CCc1ccc(NC(=O)c2cc(-c3ccco3)on2)cc1`, in [4], the IC50 is > 100 µM (inactive).

For `COc1cccc(/C=N/NC(=O)c2ccc(O)nn2)c1O`, the EC50 in assay [9] was 31.7 µM (active).

`Cc1nc2ccccc2n1/C(=N/S(=O)(=O)c1ccc(Br)cc1)c1ccccc1`: the EC50 in assay [1] and in assay [2] was > 112 µM (not active) in each case.

Take `Cc1sc2nc(CSCC(=O)N(C)c3ccccc3)nc(O)c2c1C`: the IC50 in assay [3] was > 79 µM (inactive).

Regarding `COc1ccc(NC(=O)c2cc(S(=O)(=O)N3CCc4ccccc43)cn2C)cc1`, the EC50 in assay [1] and in assay [2] was > 112 µM (not active) each time.

As to `CO/N=C/CC(=O)c1ccc(OC)cc1`, the IC50 in [7] was 22.9 µM (active).

On to `O=S(=O)(NCCc1csc(-c2cccnc2)n1)c1ccc2c(c1)OCCO2`, for which the EC50 was > 120 µM (not active) in assay [10]; 16.4 µM (active) in assay [11]; > 120 µM (not active) in assay [12]; > 112 µM (not active) in assay [1]; > 112 µM (not active) in [2].

For `CCOC(=O)C1=C(NC(=O)c2ccc(S(=O)(=O)N(C)C)cc2)Nc2ccccc2N=C1CC`, the IC50 in assay [3] was > 79 µM (inactive).

For the molecule `O=C(OCc1ccccn1)c1ccc(COc2ccccc2Cl)o1`, the IC50 in assay [7] was 35.1 µM (active). The AC50 was 17.8 µM (inconclusive) in assay [8], 31.6 µM (inconclusive) in [13] and 39.8 µM (inconclusive) in assay [14].

On to `CCc1nc2ccc(C(=O)NCc3cccs3)cn2c1N(C)Cc1nccs1`, for which, in assay [3], the IC50 is 12.8 µM (active).

Regarding `CCCCN(C(=O)C1CC(=O)N(c2ccc(OC)cc2OC)C1)c1c(N)n(CC(C)C)c(=O)[nH]c1=O` (configuration not stated), the EC50 was > 112 µM (not active) in assay [1] and 17.5 µM (active) in [2].

As to `CSCCC1NC(=O)N(CC(=O)Nc2ccc(Br)cc2Br)C1=O` (configuration not stated), the EC50 in assay [1] and in assay [2] was > 112 µM (not active) throughout.

As to `O=C(NCc1ccncc1)/C(=C/c1cccc([N+](=O)[O-])c1)NC(=O)c1ccccc1`, the EC50 in assay [1] and in assay [2] was > 112 µM (not active) in each case.

As to `CCC(=O)N1CCN(c2ccccc2NC(=O)c2ccc(-c3cccc([N+](=O)[O-])c3)o2)CC1`, the IC50 in assay [3] is > 79 µM (inactive).

Regarding `Cn1c(=O)c2c(nc(NCc3cccnc3)n2Cc2cccc(C(F)(F)F)c2)n(C)c1=O`, the IC50 in assay [3] is 14 µM (active).

As to `CC1CCN(C(=O)COC(=O)CCc2c[nH]c3ccccc23)CC1`, the IC50 in [7] is 2.53 µM (active).

Regarding `Cc1cccc(-n2c(SCc3cc(=O)n4ccsc4n3)nc3ccccc3c2=O)c1`, in assay [15], the CC50 (commonly the concentration giving 50% cytotoxicity) was 39.5 µM (active). In addition, the IC50 in [3] was > 79 µM (inactive).

Turning to `N#Cc1nc(-c2cccs2)oc1NCCc1ccccc1`, the IC50 in assay [7] is 7.45 µM (active).

Turning to `Cc1nc2sccn2c(=O)c1S(=O)(=O)N1CCN(c2ccc(F)cc2)CC1`, the EC50 in [1] and in assay [2] was > 112 µM (not active) each time.

Turning to `Cc1ccc(NC(=O)Nc2cccc(Cl)c2)c(C(=O)O)c1`, the figures for the EC50 in assay [1] and in assay [2] were 17.2 µM (active) and > 112 µM (not active), respectively.

For `Cc1ccc(NC(=O)c2cccs2)cc1NC(=O)c1ccco1`, the IC50 in assay [4] is > 100 µM (inactive).

Turning to `O=C1c2cc(Br)ccc2OC2C=CC=CC12` (configuration not stated), the IC50 in assay [4] was 81 µM (inactive).

As for `CC1CCN(c2oc(-c3ccccc3F)nc2C#N)CC1`, in [4], the IC50 was > 100 µM (inactive).

`CCOC(=O)C1(CC2CCCCO2)CCN(Cc2nccn2-c2ccc(OC)cc2)CC1` (configuration not stated): the IC50 in assay [16] is > 47.1 µM (inactive). Besides, in assay [17], the EC50 is > 53 µM (inactive).
